Assay results taken from PMC6345968, “Structural basis for species-selective targeting of Hsp90 in a pathogenic fungus” (Nature Communications, 2019).
Values after ≈ are worked out from the molar mass of the structure shown. Where two headings read alike, the source gives them in different places.

Key:
[1] = system: S. cerevisiae expressing C. albicans Hsp90; assay: Broth microdilution growth inhibition (MIC), yeast with C. albicans Hsp90 as sole Hsp90; assay type: cell-based, Saccharomyces cerevisiae
Excerpt: A critical consideration in the development of an effective antifungal is not just target binding, but also access to the target across microbial cell membranes and cell walls. Therefore, we evaluated the potency and selectivity of oxime analogs using drug susceptibility assays. We used strains of S. cerevisiae where both endogenous genes encoding isoforms of Hsp90 have been disrupted and growth is solely dependent upon C. albicans or human Hsp90 isoforms.
Antifungal tolerance and resistance were determined in flat bottom, 96-well microtiter plates using a modified broth microdilution protocol as described[8],[10]. All Hsp90 inhibitors were formulated in dimethyl sulfoxide (DMSO, Sigma Aldrich Co.); fluconazole was dissolved in sterile ddH2O. Each strain was tested in duplicate on at least two occasions. […] To test for fungicidal activity, cultures from MIC plates were spotted on YPD agar plates using a spotter (Frogger, V&P Scientific, Inc). Plates were photographed after 48 h of incubations at 30 °C.

[2] = target: T1, Hsp90 in C. albicans (SC5314) lysate (Candida albicans, UniProt P46598); assay: biochemical; assay type: binding; conditions: for FP signal: raw
T1 construct: endogenous in cells; host or cells: C. albicans SC5314 whole-cell lysate
T1 sequence (P46598 whole entry): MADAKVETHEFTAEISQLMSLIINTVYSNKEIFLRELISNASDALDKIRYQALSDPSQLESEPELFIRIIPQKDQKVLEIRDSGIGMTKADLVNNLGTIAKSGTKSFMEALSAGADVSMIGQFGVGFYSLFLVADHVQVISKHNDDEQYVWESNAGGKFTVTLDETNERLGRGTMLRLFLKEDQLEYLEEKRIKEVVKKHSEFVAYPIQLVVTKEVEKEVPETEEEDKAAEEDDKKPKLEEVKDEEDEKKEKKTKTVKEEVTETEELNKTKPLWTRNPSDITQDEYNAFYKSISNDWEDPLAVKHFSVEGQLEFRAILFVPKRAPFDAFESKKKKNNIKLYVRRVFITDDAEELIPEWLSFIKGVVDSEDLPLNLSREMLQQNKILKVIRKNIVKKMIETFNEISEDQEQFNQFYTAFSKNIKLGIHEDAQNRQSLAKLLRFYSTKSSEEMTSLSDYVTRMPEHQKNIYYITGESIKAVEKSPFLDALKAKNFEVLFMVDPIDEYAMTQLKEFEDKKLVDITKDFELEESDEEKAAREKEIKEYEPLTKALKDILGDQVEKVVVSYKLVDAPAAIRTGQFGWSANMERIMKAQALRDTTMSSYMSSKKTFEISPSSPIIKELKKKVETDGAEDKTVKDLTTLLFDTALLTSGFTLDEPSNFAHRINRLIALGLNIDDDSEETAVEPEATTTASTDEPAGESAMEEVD

[3] = system: Hsp90 in HEPG2 lysate; conditions: for FP signal: raw
[4] = system: S. cerevisiae Hsp90; set-up: method as in Owen, B. A. L. et al. J. Biol. Chem. 277, 7086–7091 (2002); conditions: ref Owen, B. A. L. et al. J. Biol. Chem. 277, 7086–7091 (2002); read-out: Km (ATP); cited from earlier work
[5] = target: S. cerevisiae Hsp90; set-up: method as in Owen, B. A. L. et al. J. Biol. Chem. 277, 7086–7091 (2002); conditions: ref Owen, B. A. L. et al. J. Biol. Chem. 277, 7086–7091 (2002); read-out: Kd for ATP; cited from earlier work
[6] = system: human Hsp90; conditions: read-out: Km (ATP); ref Owen, B. A. L. et al. J. Biol. Chem. 277, 7086–7091 (2002); cited from earlier work
[7] = target: T2, C. albicans Hsp90 (Candida albicans, UniProt P46598); assay: ATP binding by intrinsic tryptophan fluorescence quenching; conditions: read-out: Kd for ATP; purified full-length Hsp90
T2 sequence (P46598 whole entry): as above
Description: tryptophan fluorescence quenching by ligands.
Intrinsic tryptophan fluorescence was
Difference in intrinsic fluorescence of
assuming single-site specific binding.

[8] = target: human Hsp90; set-up: method as in Owen, B. A. L. et al. J. Biol. Chem. 277, 7086–7091 (2002); conditions: ref Owen, B. A. L. et al. J. Biol. Chem. 277, 7086–7091 (2002); read-out: Kd for ATP; cited from earlier work
[9] = target: T2, C. albicans Hsp90; assay: ATPase activity, Michaelis-Menten / Lineweaver-Burk; assay type: biochemical; set-up: the core ATPase activity of purified full-length homodimers from each species; 6x-His (pRSET-A) (N); made in house; host or cells: E. coli RIL; conditions: γ-32P-labeled ATP
Excerpt: 1151 Biochemical characterization of C. albicans Hsp90. a, Binding of C. albicans Hsp90 to its
1152 natural ligand ATP. b, Michaelis-Menten plot correlating the rate of ATP hydrolysis by C.
1153 albicans Hsp90 with concentration of substrate. Fractional cleavage of γ-32P-labeled ATP is
1154 plotted against ATP concentration. c, Lineweaver-Burk plot performed to define Km and kcat for
1155 the ATPase activity of C. albicans Hsp90. d, Comparison of parameters determined for C.
1156 albicans Hsp90 with previously published data for homologous human and yeast (S. cerevisiae)

[10] = system: C. albicans reporter strain CaLC922; assay type: cell-based, Candida albicans; conditions: 6-h exposure
Description: In addition to effects on host immune function, we also examined activation of the evolutionarily conserved heat-shock response by CMLD013075.
Activation of the response in C. albicans was also measured in 96-well format using a reporter strain (CaLC922) engineered with HSP70 promoter elements driving expression of the LacZ gene from Streptococcus thermophilus integrated at the HSP70 locus with the URA3 marker for selection. […]

[11] = system: 293T reporter cells
[12] = SC5314 lysate, 1.372 nM compound
[13] = SC5314 lysate, 4.115 nM compound
[14] = SC5314 lysate, 12.346 nM compound
[15] = SC5314 lysate, 37.037 nM compound
[16] = SC5314 lysate, 111.111 nM compound
[17] = SC5314 lysate, 333.333 nM compound
[18] = SC5314 lysate, 1000 nM compound
[19] = SC5314 lysate, 3000 nM compound

SMILES: C[C@@H]1C[C@@H]2O[C@@H]2/C=C\C=C\C(=NOCc2ccccc2Cl)Cc2c(Cl)c(O)cc(O)c2C(=O)O1 [compound 4]
- MIC [1]: 2.6 µM (≈ 1.31 µg/mL)
- normalized fungal selectivity in lysates ([2]; C. albicans SC5314 vs HEPG2 lysate, FP): 2.9 fold
- EC50 ([2]; EC50, SC5314 lysate, not normalized, oxime panel experiment 220817): 0.531 µM
- Ratio re. GdA ([2]; EC50 relative to GdA, SC5314 lysate): 31.1993
- FP signal relative to 0 nM ([2]; SC5314 lysate, 0.457 nM compound): 0.9904
- FP signal (raw) ([2]; SC5314 lysate, 1.372 nM): 208
- FP signal relative to 0 nM [2, 12]: 1
- FP signal [2, 12]: 208
- FP signal (raw) ([2]; SC5314 lysate, 4.115 nM): 207
- FP signal relative to 0 nM [2, 13]: 0.9952
- FP signal [2, 13]: 207
- FP signal (raw) ([2]; SC5314 lysate, 12.346 nM): 202
- FP signal relative to 0 nM [2, 14]: 0.9712
- FP signal [2, 14]: 202
- FP signal (raw) ([2]; SC5314 lysate, 37.037 nM): 199
- FP signal relative to 0 nM [2, 15]: 0.9567
- FP signal [2, 15]: 199
- FP signal (raw) ([2]; SC5314 lysate, 111.111 nM): 186
- FP signal relative to 0 nM [2, 16]: 0.8942
- FP signal [2, 16]: 186
- FP signal (raw) ([2]; SC5314 lysate, 333.333 nM): 145
- FP signal relative to 0 nM [2, 17]: 0.6971
- FP signal [2, 17]: 145
- FP signal (raw) ([2]; SC5314 lysate, 1000 nM): 75
- FP signal relative to 0 nM [2, 18]: 0.3606
- FP signal [2, 18]: 75
- FP signal (raw) ([2]; SC5314 lysate, 3000 nM): 39
- FP signal relative to 0 nM [2, 19]: 0.1875
- FP signal [2, 19]: 39
- HepG2/SC5314 ([2]; ratio of GdA-normalized EC50s, human over fungal lysate): 2.89
- HepG2/SC5314 ([2]; ratio of GdA-relative EC50 ratios, HepG2 over SC5314): 2.89
- Ratio rel. GdA (HepG2) ([3]; EC50 / EC50 of GdA in HepG2 lysate): 90.1713
- Ratio rel. GdA (HepG2) ([3]; EC50 relative to GdA, HEPG2 lysate): 90.1713
- FP signal, Fxn Control ([3]; HEPG2 lysate, log concentration 0.137354 (1.372 nM)): 1.0099
- FP signal, Fxn Control ([3]; HEPG2 lysate, log concentration 0.61437 (4.115 nM)): 1.0198
- FP signal, Fxn Control ([3]; HEPG2 lysate, log concentration 1.09153 (12.346 nM)): 1.0099
- FP signal, Fxn Control ([3]; HEPG2 lysate, log concentration 1.56864 (37.037 nM)): 1.0099
- FP signal, Fxn Control ([3]; HEPG2 lysate, log concentration 2.04576 (111.111 nM)): 0.9901
- FP signal, Fxn Control ([3]; HEPG2 lysate, log concentration 2.52288 (333.333 nM)): 0.9158
- FP signal, Fxn Control ([3]; HEPG2 lysate, log concentration 3 (1000 nM)): 0.6881
- FP signal, Fxn Control ([3]; HEPG2 lysate, log concentration 3.47712 (3000 nM)): 0.2178
- FP signal, Fxn Control ([3]; HEPG2 lysate, log concentration -0.340084 (0.457 nM)): 1.0099
- FP signal (raw) ([3]; HepG2 lysate, 0.457 nM): 204
- FP signal ([3]; HepG2 lysate, 0.457 nM compound): 204
- FP signal (raw) ([3]; HepG2 lysate, 1.372 nM): 204
- FP signal ([3]; HepG2 lysate, 1.372 nM compound): 204
- FP signal (raw) ([3]; HepG2 lysate, 4.115 nM): 206
- FP signal ([3]; HepG2 lysate, 4.115 nM compound): 206
- FP signal (raw) ([3]; HepG2 lysate, 12.346 nM): 204
- FP signal ([3]; HepG2 lysate, 12.346 nM compound): 204
- FP signal (raw) ([3]; HepG2 lysate, 37.037 nM): 204
- FP signal ([3]; HepG2 lysate, 37.037 nM compound): 204
- FP signal (raw) ([3]; HepG2 lysate, 111.111 nM): 200
- FP signal ([3]; HepG2 lysate, 111.111 nM compound): 200
- FP signal (raw) ([3]; HepG2 lysate, 333.333 nM): 185
- FP signal ([3]; HepG2 lysate, 333.333 nM compound): 185
- FP signal (raw) ([3]; HepG2 lysate, 1000 nM): 139
- FP signal ([3]; HepG2 lysate, 1000 nM compound): 139
- FP signal (raw) ([3]; HepG2 lysate, 3000 nM): 44
- FP signal ([3]; HepG2 lysate, 3000 nM compound): 44
- EC50 ([3]; HepG2 lysate, oxime panel experiment 220817): 2 µM

SMILES: Nc1ncnc2c1ncn2[C@@H]1O[C@H](COP(=O)(O)OP(=O)(O)OP(=O)(O)O)[C@@H](O)[C@H]1O [ATP]
- Km [4]: 511 µM
- Kd [5]: 132 µM
- Km [6]: 324 µM
- Kd [7]: 125 µM
- Kd [8]: 240 µM
- Km [9]: 533 µM

SMILES: CC(C)c1cc(-c2n[nH]c(=O)n2-c2ccc3c(ccn3C)c2)c(O)cc1O [ganetespib, reference compound]
- heat-shock reporter activation [10]: neither ganetespib nor radicicol induced the reporter to a measurable extent
- heat-shock reporter activation [11]: concentration-dependent reporter activation
